Measurements published in ChEMBL document CHEMBL1949578, “Inhibitors of acetyltransferase domain of N-acetylglucosamine-1-phosphate-uridyltransferase/glucosamine-1-phosphate-acetyltransferase (GlmU). Part 1: Hit to lead evaluation of a novel arylsulfonamide series” (Bioorg Med Chem Lett, 2012).
pIC50: −log10 of the molar value.

What was measured:
[1] = Inhibition of Haemophilus influenzae acetyltransferase activity of GlmU using acetyl-CoA and glucosamine-1-phosphate after 30 mins by Ellman's method
[2] = Inhibition of Staphylococcus aureus acetyltransferase activity of GlmU using acetyl-CoA and glucosamine-1-phosphate after 30 mins by Ellman's method
[3] = Lipophilicity, log D of the compound at pH 7.4; conditions: buffer
[4] = molecular target: Bifunctional protein GlmU (Streptococcus pneumoniae serotype 4 (strain ATCC BAA-334 / TIGR4), UniProt Q97R46); test: (§1) Inhibition of Streptococcus pneumoniae acetyltransferase activity of GlmU using acetyl-CoA and glucosamine-1-phosphate after 30 mins by Ellman's method
[5] = Inhibition of Escherichia coli acetyltransferase activity of GlmU using acetyl-CoA and glucosamine-1-phosphate after 30 mins by Ellman's method
[6] = molecular target: Bifunctional protein GlmU (Streptococcus pneumoniae serotype 4 (strain ATCC BAA-334 / TIGR4)) (UniProt Q97R46); test: as §1
Bifunctional protein GlmU (Streptococcus pneumoniae serotype 4 (strain ATCC BAA-334 / TIGR4)), sequence (Q97R46 whole entry): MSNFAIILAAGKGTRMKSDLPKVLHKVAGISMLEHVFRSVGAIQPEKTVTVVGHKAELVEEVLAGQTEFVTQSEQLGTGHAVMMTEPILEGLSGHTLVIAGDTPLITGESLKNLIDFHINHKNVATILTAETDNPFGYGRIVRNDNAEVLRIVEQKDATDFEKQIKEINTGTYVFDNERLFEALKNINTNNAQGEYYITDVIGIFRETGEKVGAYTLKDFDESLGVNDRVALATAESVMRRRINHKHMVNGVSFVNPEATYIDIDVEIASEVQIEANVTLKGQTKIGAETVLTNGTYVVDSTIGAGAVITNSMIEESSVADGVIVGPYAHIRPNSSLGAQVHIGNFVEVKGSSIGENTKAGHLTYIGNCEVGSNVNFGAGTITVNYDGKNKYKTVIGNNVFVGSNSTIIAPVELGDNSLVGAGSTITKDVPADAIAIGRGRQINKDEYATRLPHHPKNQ

Bifunctional protein GlmU, sequence (Q97R46 whole entry): as above

| SMILES | pIC50 [1] | pIC50 [2] | logD [3] | pIC50 [4] | pIC50 [5] | inhibition [6] [%] |
| --- | --- | --- | --- | --- | --- | --- |
| COc1cc(OC)c(S(=O)(=O)N2c3ccccc3CC2C)cc1NC(C)=O (stereo not drawn) | 5.10 | < 3.70 |  | < 3.70 |  |  |
| COc1cc(OC)c(S(=O)(=O)Nc2ccccc2F)cc1NC(C)=O | 5.00 | < 3.70 |  | < 3.70 | 5.30 |  |
| COc1cc(OC)c(S(=O)(=O)N(C)c2ccccc2)cc1NC(C)=O | 5.22 | < 3.70 |  | < 3.70 | 5.52 |  |
| COc1cc(OC)c(S(=O)(=O)N(c2ccccc2)C(C)C)cc1NC(C)=O | 4.80 | < 3.70 |  | < 3.70 | 5.70 |  |
| COc1cc(OC)c(S(=O)(=O)Nc2cccc(C)c2)cc1NC(C)=O | 4.40 | < 3.70 |  | < 3.70 | 4.77 |  |
| COc1cc(OC)c(S(=O)(=O)N2c3ccccc3CCC2C)cc1NC(C)=O (stereo not drawn) | 5.52 | < 3.70 | 1.97 | 4.26 | 5.82 |  |
| COc1cc(OC)c(S(=O)(=O)N2CCCC2C)cc1NC(C)=O (stereo not drawn) | < 3.70 | < 3.70 |  | < 3.70 | < 3.70 |  |
| COc1cc(OC)c(S(=O)(=O)Nc2cccc(F)c2)cc1NC(C)=O | 4.52 | < 3.70 |  | < 3.70 | 4.82 |  |
| CCN(c1ccccc1C)S(=O)(=O)c1cc(NC(C)=O)c(OC)cc1OC | 4.10 | < 3.70 |  | < 3.70 | 4.82 |  |
| COc1cc(OC)c(S(=O)(=O)N2c3ccccc3CCC2C)cc1NC(=O)COc1ccc(C(C)=O)cc1 (stereo not drawn) | < 3.70 | < 3.70 |  | < 3.70 | < 3.70 |  |
| COc1cc(OC)c(S(=O)(=O)N2c3ccccc3CCC2C)cc1NC(=O)c1ccccc1 (stereo not drawn) | < 3.70 | < 3.70 |  | < 3.70 | < 3.70 |  |
| COc1cc(OC)c(S(=O)(=O)N2c3ccccc3CCC2C)cc1NC(=O)CSc1ccncc1 (stereo not drawn) | 5.22 | < 3.70 | 2.8 | < 3.70 | 6.00 |  |
| COc1cc(OC)c(S(=O)(=O)Nc2ccc(C)cc2)cc1NC(C)=O | 4.33 | < 3.70 |  | < 3.70 | 4.68 |  |
| COc1cc(OC)c(S(=O)(=O)Nc2ccc(F)cc2)cc1NC(C)=O | 4.22 | < 3.70 |  | < 3.70 | 4.60 |  |
| COc1cc(OC)c(S(=O)(=O)Nc2ccccc2)cc1NC(C)=O | 4.15 | < 3.70 |  | < 3.70 | 4.70 |  |
| COc1cc(OC)c(S(=O)(=O)N2CCCCC2C)cc1NC(C)=O (stereo not drawn) | < 3.70 | < 3.70 |  | < 3.70 | 3.89 |  |
| COc1cc(OC)c(S(=O)(=O)NCc2ccc3c(c2)OCO3)cc1NC(C)=O | < 3.70 | < 3.70 |  | < 3.70 | < 3.70 |  |
| COc1cc(OC)c(S(=O)(=O)N(C)C)cc1NC(C)=O | < 3.70 | < 3.70 |  | < 3.70 | < 3.70 |  |
| COc1cc(OC)c(S(=O)(=O)N2c3ccccc3CCC2C)cc1NS(C)(=O)=O (stereo not drawn) | < 3.70 | < 3.70 |  | < 3.70 | 4.00 |  |
| COc1cc(OC)c(S(=O)(=O)N2CCCCC2)cc1NC(C)=O | < 3.70 | < 3.70 |  | < 3.70 | 4.10 |  |

Next, values leading:

| pIC50 [1] | pIC50 [2] | logD [3] | pIC50 [4] | pIC50 [5] | inhibition [6] [%] | SMILES |
| --- | --- | --- | --- | --- | --- | --- |
| 6.00 | < 3.70 | -1.04 | 4.52 | 6.30 |  | COc1cc(OC)c(S(=O)(=O)N2c3ccccc3CCC2C)cc1NC(=S)NCC(=O)O (stereo not drawn) |
| 5.22 | < 3.70 | < -1 | 5.30 | 5.52 |  | COc1cc(OC)c(S(=O)(=O)NCc2ccccc2N2CCC(CO)CC2)cc1NC(=O)CCC(=O)O |
| 5.70 | < 3.70 |  | 5.00 | 6.30 |  | COc1cc(OC)c(S(=O)(=O)N2c3ccccc3CCC2C)cc1NC(=O)/C=C/C(=O)O (stereo not drawn) |
| 5.30 | < 3.70 | -0.72 | 4.92 | 5.52 |  | COc1cc(OC)c(S(=O)(=O)NCc2ccccc2N2CCCCC2)cc1NC(=O)CCC(=O)O |
| 3.92 | < 3.70 |  |  | < 3.70 |  | COc1cc(OC)c(S(=O)(=O)NCc2ccccc2N2CCCCC2)cc1NC(C)=O |
| 6.00 | 4.30 |  | 5.70 | 6.30 |  | COc1cc(OC)c(S(=O)(=O)NCc2ccccc2N2CCC(C(=O)O)CC2)cc1NC(=O)CCC(=O)O |
| 6.70 | < 3.70 | -1.2 | < 3.70 | 7.00 |  | COc1cc(OC)c(S(=O)(=O)N2c3ccccc3CCC2C)cc1NC(=O)CSCC(=O)O (stereo not drawn) |
| 4.27 | < 3.70 |  | < 3.70 | 5.00 |  | COc1ccccc1CNS(=O)(=O)c1cc(NC(C)=O)c(OC)cc1OC |
| 5.30 | < 3.70 | -1.02 | 4.70 | 6.30 |  | COc1cc(OC)c(S(=O)(=O)N2c3ccccc3CCC2C)cc1NC(=O)NCC(=O)O (stereo not drawn) |
| 6.52 | < 3.70 | -1 |  | 6.70 | 28 | COc1cc(OC)c(S(=O)(=O)N2c3ccccc3CCC2C)cc1NC(=O)COCC(=O)O (stereo not drawn) |
| 5.30 |  |  | 4.82 | 6.05 |  | COc1cc(OC)c(S(=O)(=O)NCc2ccccc2-c2ccc(C(=O)O)cc2)cc1NC(=O)CCC(=O)O |
|  | < 3.70 | -1 |  | 6.60 |  | COc1cc(OC)c(S(=O)(=O)NCc2ccccc2N2CCC(COC(=O)CCC(=O)O)CC2)cc1NC(=O)CCC(=O)O |
| 4.10 | < 3.70 | 1.03 | 4.15 | 4.40 |  | COc1cc(OC)c(S(=O)(=O)NCc2ccccc2N2CCC(CO)CC2)cc1NC(C)=O |
| 5.70 | < 3.70 |  | 4.05 | 5.70 |  | COc1cc(OC)c(S(=O)(=O)N2c3ccccc3CCC2C)cc1NC(=O)COC(C)=O (stereo not drawn) |
| 4.70 | < 3.70 |  | < 3.70 | 5.40 |  | COc1cc(OC)c(S(=O)(=O)NCc2ccccc2Br)cc1NC(C)=O |
| 6.22 | < 3.70 | -0.87 | 4.70 | 7.05 |  | COc1cc(OC)c(S(=O)(=O)N2c3ccccc3CCC2C)cc1NC(=O)CCC(=O)O (stereo not drawn) |
| 4.26 | < 3.70 |  | < 3.70 | 4.82 |  | COC(=O)c1ccccc1CNS(=O)(=O)c1cc(NC(C)=O)c(OC)cc1OC |
| 5.52 | 5.00 |  | 5.70 | > 6.40 |  | COc1cc(OC)c(S(=O)(=O)NCc2ccccc2N2CCC(CC(=O)O)CC2)cc1NC(=O)CCC(=O)O |
